Assay results as given in patent publication US20090012085A1, “DOSAGE FORMS AND METHODS OF TREATMENT USING A TYROSINE KINASE INHIBITOR” (priority 2005, published 2009).
Read-outs that look alike come from different tables or passages of the source.

Assay: Phase I dose-escalating study, plasma pharmacokinetics in patients with solid tumor
Type: in vivo, human
Conditions: human, plasma, plasma; for Cmax: read-out: Cmax, mean (% CV); for Tmax: read-out: tmax, mean (% CV); for half-life: read-out: t½, mean (% CV) (converted); for concentration at 3 h / concentration at 4 h / concentration at 6 h / concentration at 8 h / concentration at 10 h: 100 mg QD; for concentration at 3 h: nominal time 3 h; for concentration at 4 h: nominal time 4 h; for concentration at 6 h: nominal time 6 h; for concentration at 8 h: nominal time 8 h; for concentration at 10 h: nominal time 10 h; for concentration at 0 h: nominal time 0 h; for concentration at 1 h: nominal time 1 h; for concentration at 2 h: nominal time 2 h; for concentration at 20 h: nominal time 20 h; for AUC(0-t): read-out: AUC(0-24), mean (% CV)
Procedure: Cmax values, or maximum total plasma concentrations, of a compound of formula 1 can be measured according to techniques well known to those skilled in the art. For example, after a compound of formula 1 has been administered to a mammal, blood samples can be taken at fixed time points over a period of time (e.g. 24 hours) and the serum or plasma concentration of compound of formula 1 can be measured using standard analytical techniques known in the art. In vivo determinations Cmax can then be made by plotting the serum or plasma concentration of compound of formula 1 along the ordinate (y-axis) against time along the abscissa (x-axis).
The maleate salt of compound 1 was administered to human patients with solid tumor malignancies not amenable to conventional therapies in a Phase I dose-escalating multicenter study. The types of tumor malignancies included colorectal carcinoma, renal cell carcinoma, esophageal carcinoma, thymus carcinoma, mastocytosis, lung cancer and multiple endocrine neoplasia type II. Patients were treated in cohorts of 6 with escalating QD (once per day) doses of the maleate salt of compound 1 under fasting conditions. Each study cycle of 5 weeks consisted of 4 weeks of treatment followed by 1 week of rest (4/1 schedule), or continuous dosing without any rest period.
Full pharmacokinetic profiles were collected on Cycle 1 Day 1 (C1D1), Cycle 1 Day 28 (C1D28), and Cycle 2 Day 28 (C2D28). Preliminary pharmacokinetic parameters for the first 44 patients, i.e. the first 7 dosing groups, were estimated using nominal collection times and quality-controlled, non-quality assured bioanalytical data. The dosage amounts in Table 1A and Table 1B are free base equivalent amounts.

[1] = 50 mg, 50 mg QD (4/1), C2D28 (n = 3)
[2] = 100 mg QD 4/1 (n = 6), read-out: Mean plasma concentration following the last dose on cycle 1 day 28
[3] = 100 mg QD Continuous (n = 4), read-out: Mean plasma concentration following the last dose on cycle 1 day 28
[4] = 100 mg, 100 mg QD 4/1 (n = 6), read-out: Mean plasma concentration following the last dose on cycle 1 day 28
[5] = 100 mg, 100 mg QD (4/1), C1D1 (n = 7)
[6] = 100 mg, 100 mg QD (4/1), C1D28 (n = 6)
[7] = 100 mg, 100 mg QD (4/1), C2D28 (n = 4)
[8] = 100 mg, 100 mg QD (continuous), C1D1 (n = 6)
[9] = 100 mg, 100 mg QD (continuous), C1D28 (n = 6)
[10] = 100 mg, 100 mg QD (continuous), C2D28 (n = 4)
[11] = 100 mg, 100 mg QD Continuous (n = 4), read-out: Mean plasma concentration following the last dose on cycle 1 day 28

Cc1[nH]c(/C=C2\C(=O)Nc3ccc(F)cc32)c(C)c1C(=O)NC[C@H](O)CN1CCOCC1 [compound 1, 5-[(Z)-(5-fluoro-2-oxo-1,2-dihydro-3H-indol-3-ylidene)methyl]-N-[(2S)-2-hydroxy-3-morpholin-4-ylpropyl]-2,4-dimethyl-1H-pyrrole-3-carboxamide]
concentration at 24 h (50 mg, 50 mg QD (4/1), C2D28 (n = 3), read-out: C(trough, 24 h), mean (% CV)): 44.2 ng/mL | Cmax [1]: 173 ng/mL | Tmax [1]: 3.3 h | half-life [1]: 18.9 h | concentration at 3 h [2]: 337 ng/mL | concentration at 4 h [2]: 344 ng/mL | concentration at 6 h [2]: 312 ng/mL | concentration at 8 h [2]: 261 ng/mL | concentration at 10 h [2]: 208 ng/mL | concentration at 3 h [3]: 460 ng/mL | concentration at 4 h [3]: 560 ng/mL | concentration at 6 h [3]: 707 ng/mL | concentration at 8 h [3]: 395 ng/mL | concentration at 10 h [3]: 566 ng/mL | concentration at 0 h [4]: 121 ng/mL | concentration at 1 h [4]: 218 ng/mL | concentration at 2 h [4]: 326 ng/mL | concentration at 20 h [4]: 311 ng/mL | concentration at 24 h (100 mg, 100 mg QD 4/1 (n = 6), nominal time 24 h, read-out: Mean plasma concentration following the last dose on cycle 1 day 28): 111 ng/mL | concentration at 48 h (100 mg, 100 mg QD 4/1 (n = 6), nominal time 48 h, read-out: Mean plasma concentration following the last dose on cycle 1 day 28): 60.8 ng/mL | concentration at 72 h (100 mg, 100 mg QD 4/1 (n = 6), nominal time 72 h, read-out: Mean plasma concentration following the last dose on cycle 1 day 28): 16.1 ng/mL | concentration at 96 h (100 mg, 100 mg QD 4/1 (n = 6), nominal time 96 h, read-out: Mean plasma concentration following the last dose on cycle 1 day 28): 9.96 ng/mL | concentration at 144 h (100 mg, 100 mg QD 4/1 (n = 6), nominal time 144 h, read-out: Mean plasma concentration following the last dose on cycle 1 day 28): 2.94 ng/mL | AUC(0-t) [5]: 2480 ng·h/mL | concentration at 24 h (100 mg, 100 mg QD (4/1), C1D1 (n = 7), read-out: C(trough, 24 h), mean (% CV)): 86.8 ng/mL | Cmax [5]: 270 ng/mL | Tmax [5]: 2.6 h | half-life [5]: 12.5 h | AUC(0-t) [6]: 6050 ng·h/mL | concentration at 24 h (100 mg, 100 mg QD (4/1), C1D28 (n = 6), read-out: C(trough, 24 h), mean (% CV)): 111 ng/mL | Cmax [6]: 413 ng/mL | Tmax [6]: 2.7 h | half-life [6]: 22 h | AUC(0-t) [7]: 2800 ng·h/mL | concentration at 24 h (100 mg, 100 mg QD (4/1), C2D28 (n = 4), read-out: C(trough, 24 h), mean (% CV)): 156 ng/mL | Cmax [7]: 181 ng/mL | Tmax [7]: 13.5 h | half-life [7]: 23 h | AUC(0-t) [8]: 1800 ng·h/mL | concentration at 24 h (100 mg, 100 mg QD (continuous), C1D1 (n = 6), read-out: C(trough, 24 h), mean (% CV)): 34.1 ng/mL | Cmax [8]: 171 ng/mL | Tmax [8]: 4.3 h | half-life [8]: 12.9 h | AUC(0-t) [9]: 2990 ng·h/mL | concentration at 24 h (100 mg, 100 mg QD (continuous), C1D28 (n = 6), read-out: C(trough, 24 h), mean (% CV)): 63 ng/mL | Cmax [9]: 255 ng/mL | Tmax [9]: 3.3 h | half-life [9]: 11.4 h | AUC(0-t) [10]: 3230 ng·h/mL | concentration at 24 h (100 mg, 100 mg QD (continuous), C2D28 (n = 4), read-out: C(trough, 24 h), mean (% CV)): 62.8 ng/mL | Cmax [10]: 250 ng/mL | Tmax [10]: 3.7 h | half-life [10]: 13.8 h | concentration at 0 h [11]: 284 ng/mL | concentration at 1 h [11]: 232 ng/mL | concentration at 2 h [11]: 524 ng/mL | concentration at 20 h [11]: 265 ng/mL | concentration at 24 h (100 mg, 100 mg QD Continuous (n = 4), nominal time 24 h, read-out: Mean plasma concentration following the last dose on cycle 1 day 28): 246 ng/mL
